Source: US9758492B2, “IDO inhibitors” (Bristol-Myers Squibb Company, priority 2013, dated 2017)

The compounds below were run against IDO (Homo sapiens, UniProt P14902) (assay: LLE_IDO_ABS_DR (IDO assay)).
IDO, sequence (P14902 whole entry): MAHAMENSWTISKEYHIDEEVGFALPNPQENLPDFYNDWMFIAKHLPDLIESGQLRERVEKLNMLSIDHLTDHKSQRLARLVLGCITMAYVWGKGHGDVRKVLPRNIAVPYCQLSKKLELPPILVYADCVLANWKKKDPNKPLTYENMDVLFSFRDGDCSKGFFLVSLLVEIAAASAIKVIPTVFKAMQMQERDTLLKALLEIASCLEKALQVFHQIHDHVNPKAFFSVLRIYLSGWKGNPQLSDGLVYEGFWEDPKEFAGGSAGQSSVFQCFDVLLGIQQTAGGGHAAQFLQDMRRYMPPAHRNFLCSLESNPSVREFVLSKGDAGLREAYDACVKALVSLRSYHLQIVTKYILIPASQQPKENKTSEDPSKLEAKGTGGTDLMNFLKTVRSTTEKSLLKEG
CC(C)CN(CC(C)C)c1ccc(-c2ccccc2-c2nnn[nH]2)cc1NC(=O)Nc1ccccn1 [Example 238, 1-(4-(Diisobutylamino)-2′-(1H-tetrazol-5-yl)-[1,1′-biphenyl]-3-yl)-3-(pyridin-2-yl)urea] was tested, and the IC50 was 750 nM. In the case of O=C(Nc1cc(-c2ccccc2-c2nnn[nH]2)ccc1N(CCc1ccccc1)CCC(F)(F)F)Nc1ccccc1C(F)(F)F [Example 295, 1-(4-(Phenethyl(3,3,3-trifluoropropyl)amino)-2′-(1H-tetrazol-5-yl)biphenyl-3-yl)-3-(2-(trifluoromethyl)phenyl)urea], the IC50 is reported as 300 nM. With O=C(Nc1ccc(OC(F)(F)F)cc1)Nc1cc(-c2ccccc2-c2nnn[nH]2)ccc1N1CCC(F)(F)C1 [Example 316, 1-(4-(3,3-difluoropyrrolidin-1-yl)-2′-(1H-tetrazol-5-yl)-[1,1′-biphenyl]-3-yl)-3-(4-(trifluoromethoxy)phenyl)urea] the IC50 was 7720 nM. In the case of O=C(Nc1ccc(OC(F)(F)F)cc1)Nc1cc(-c2ccccc2-c2nnn[nH]2)ccc1N(CCC(F)(F)F)Cc1ccc(F)cc1C(F)(F)F [Example 339, 1-(4-((4-fluoro-2-(trifluoromethyl)benzyl)(3,3,3-trifluoropropyl)amino)-2′-(1H-tetrazol-5-yl)-[1,1′-biphenyl]-3-yl)-3-(4-(trifluoromethoxy)phenyl)urea], the IC50 is reported as 160 nM. With Cc1ccc(NC(=O)Nc2cc(-c3ccccc3-c3nnn[nH]3)ccc2N(CCC(C)C(F)(F)F)CC(C)C)cc1 (stereo not drawn) [Example 202, 1-(4-(isobutyl(4,4,4-trifluoro-3-methylbutyl)amino)-2′-(1H-tetrazol-5-yl)-[1,1′-biphenyl]-3-yl)-3-(p-tolyl)urea] the IC50 was 10 nM. With COc1ccc(-c2ccc(N(CCC(F)(F)F)CC3CC3)c(NC(=O)Nc3ccc(C)cc3)c2)cc1C(=O)O [Example 65, 4′-((cyclopropylmethyl) (3,3,3-trifluoropropyl)amino)-4-methoxy-3′-(3-p-tolylureido) biphenyl-3-carboxylic acid] the IC50 was 3700 nM. Cc1ccc(NC(=O)Nc2cc(-c3scnc3C(=O)O)ccc2N(CC(C)C)CC(C)C)cc1 [Example 103, 5-(4-(diisobutylamino)-3-(3-p-tolylureido)phenyl)thiazole-4-carboxylic acid] was tested, and the IC50 was 1760 nM. CC(C)CN(CC(C)C)c1ccc(-c2ccccc2C(=O)O)cc1NC(=O)Nc1ccc(F)cc1F [Example 138, 3′-(3-(2,4-difluorophenyl)ureido)-4′-(diisobutylamino) biphenyl-2-carboxylic acid] gave an IC50 of 6.24 nM. Cc1ccc(NC(=O)Nc2cc(-c3ccccc3-c3nnn[nH]3)ccc2N(C)C2CCC(F)(F)CC2)cc1 [Example 106, 1-(4-((4,4-difluoro-cyclohexyl) (methyl)amino)-2′-(1H-tetrazol-5-yl)biphenyl-3-yl)-3-p-tolylurea] showed an IC50 of 8.81 nM. CC(C)CN(CC(C)C)c1ccc(-c2ccccc2-c2nnn[nH]2)cc1NC(=O)Nc1ccc(C#N)cc1F [Example 260] showed an IC50 of 6.48 nM. CC(C)CN(c1ccc(-c2cc(F)ccc2C(=O)O)cc1NC(=O)Nc1ccc(F)cc1F)C(C)C [Example 158, 3′-(3-(2,4-difluorophenyl)ureido)-5-fluoro-4′-(isobutyl(isopropyl)amino)biphenyl-2-carboxylic acid] was tested, and the IC50 was 30 nM. CC(C)CN(CC(C)C)c1ccc(-c2ccccc2-c2nnn[nH]2)cc1NC(=O)Nc1cccc(OC(F)(F)F)c1 [Example 273, 1-(4-(diisobutylamino)-2′-(1H-tetrazol-5-yl)-[1,1′-biphenyl]-3-yl)-3-(3-(trifluoromethoxy)phenyl)urea] gave an IC50 of 180 nM. For CC1CC(C)CN(c2ccc(-c3ccccc3-c3nnn[nH]3)cc2NC(=O)Nc2ccccc2F)C1 (stereo not drawn) [Example 237], the IC50 was 1290 nM. Work on CCCN(c1ccc(-c2ccccc2-c2nnn[nH]2)cc1NC(=O)Nc1ccc(C)cc1)C1CCCCC1 [Example 85, 1-(4-(cyclohexyl(propyl)amino)-2′-(1H-tetrazol-5-yl)biphenyl-3-yl)-3-p-tolylurea] yielded an IC50 of 1.65 nM. For Cc1ccc(NC(=O)Nc2cc(-c3ccccc3-c3nnn[nH]3)ccc2N(CC(C)C)CC(C)C)c(F)c1 [Example 264, 1-(4-(diisobutylamino)-2′-(1H-tetrazol-5-yl)-[1,1′-biphenyl]-3-yl)-3-(2-fluoro-4-methylphenyl)urea], the IC50 was 2.61 nM. CCN(CC(C)(C)C)c1ccc(-c2cc(F)ccc2C(=O)O)cc1NC(=O)Nc1ccc(C)cc1 [Example 113, 4′-(ethyl(neopentyl)amino)-5-fluoro-3′-(3-p-tolylureido)biphenyl-2-carboxylic acid] gave an IC50 of 400 nM. With Cc1ccc(NC(=O)Nc2cc(-c3ccccc3C(=O)NS(C)(=O)=O)ccc2N(CC(C)C)CC(C)C)cc1 [Example 232, 4′-(Diisobutylamino)-N-(methylsulfonyl)-3′-(3-(p-tolyl)ureido)-[1,1′-biphenyl]-2-carboxamide] the IC50 was 660 nM. With Cc1ccc(NC(=O)Nc2cc(-c3ccccc3-c3nnn[nH]3)ccc2N(C)C2CCCCCC2)cc1 [Example 79, 1-(4-(cycloheptyl(methyl)amino)-2′-(1H-tetrazol-5-yl)biphenyl-3-yl)-3-p-tolylurea] the IC50 was 1.81 nM. For O=C(Nc1ccc(OC(F)(F)F)cc1)Nc1cc(-c2ccccc2-c2nnn[nH]2)ccc1N(CCC(F)(F)F)Cc1ccccn1 [Example 343, 1-(4-((pyridin-2-ylmethyl)(3,3,3-trifluoropropyl)amino)-2′-(1H-tetrazol-5-yl)-[1,1′-biphenyl]-3-yl)-3-(4-(trifluoromethoxy)phenyl)urea], the IC50 was 230 nM. For O=C(Nc1ccc(OC(F)(F)F)cc1)Nc1cc(-c2ccccc2-c2nnn[nH]2)ccc1N(CCc1ccccc1)CCC(F)(F)F [Example 331, 1-(4-(phenethyl(3,3,3-trifluoropropyl)amino)-2′-(1H-tetrazol-5-yl)-[1,1′-biphenyl]-3-yl)-3-(4-(trifluoromethoxy)phenyl)urea], the IC50 was 160 nM. Compound CCCN(c1ccc(-c2cc(F)ccc2C(=O)O)cc1NC(=O)Nc1ccc(C)cc1)C1CCCC1 [Example 166, 4′-(cyclopentyl(propyl)amino)-5-fluoro-3′-(3-p-tolylureido) biphenyl-2-carboxylic acid] has an IC50 of 20 nM. For [2H]C([2H])(C(C)C)N(c1ccc(-c2ccccc2C(=O)O)cc1NC(=O)Nc1ccc(C)cc1)C1CCCCC1 [Example 30, 4′-(Cyclohexyl(1,1-dideutero-2-methylpropyl)amino)-3′-(3-p-tolylureido)biphenyl-2-carboxylic acid], the IC50 was 5.19 nM. For CC(C)CN(c1ccc(-c2ccccc2C(=O)O)cc1NC(=O)Nc1ccccc1F)C1CCCCC1 [Example 122, 4′-(cyclohexyl(isobutyl)amino)-3′-(3-(2-fluorophenyl)ureido) biphenyl-2-carboxylic acid], the IC50 was 3.47 nM. CCN(CC(C)(C)C)c1ccc(-c2ccccc2-c2nnn[nH]2)cc1NC(=O)Nc1ccc(C)cc1 [Example 110, 1-(4-(ethyl(neopentyl)amino)-2′-(1H-tetrazol-5-yl)biphenyl-3-yl)-3-p-tolylurea] showed an IC50 of 40 nM. With CC(C)CN(c1ccc(-c2ccccc2C(=O)O)cc1NC(=O)Nc1ccc(OC(F)(F)F)cc1)C1CCC(F)(F)CC1 [Example 511, 4′-((4,4-Difluorocyclohexyl)(isobutyl)amino)-3′-(3-(4-(trifluoromethoxy)phenyl)ureido)-[1,1′-biphenyl]-2-carboxylic acid] the IC50 was 8.1 nM. Compound Cc1ccc(NC(=O)Nc2cc(-c3ccccc3C(=O)O)ccc2N(CC(C)C)C(C)C)cc1 [Example 148, 4′-(isobutyl(isopropyl)amino)-3′-(3-p-tolylureido)biphenyl-2-carboxylic acid] has an IC50 of 40 nM. Compound O=C(Nc1ccc(C2CC2)cc1)Nc1cc(-c2ccccc2-c2nnn[nH]2)ccc1N1CCC(F)(F)C1 [Example 347, 1-(4-cyclopropylphenyl)-3-(4-(3,3-difluoropyrrolidin-1-yl)-2′-(1H-tetrazol-5-yl)-[1,1′-biphenyl]-3-yl)urea] has an IC50 of 5260 nM. With CC(C)CN(c1ccc(-c2cc(F)ccc2C(=O)O)cc1NC(=O)Nc1ccccc1C(F)(F)F)C1CCCCC1 [Example 163, 4′-(cyclohexyl (isobutyl)amino)-5-fluoro-3′-(3-(2-(trifluoromethyl)phenyl)ureido) biphenyl-2-carboxylic acid] the IC50 was 1030 nM. Cc1ccc(NC(=O)Nc2cc(-c3ccc(F)cc3NS(=O)(=O)C(F)(F)F)ccc2N(CC(C)C)CC(C)C)cc1 [Example 81, N-(4′-(diisobutylamino)-4-fluoro-3′-(3-p-tolylureido)biphenyl-2-yl)-1,1,1-trifluoromethane-sulfonamide] gave an IC50 of 270 nM. For O=C(Nc1ccc(C(F)(F)F)cc1F)Nc1cc(-c2ccccc2-c2nnn[nH]2)ccc1N(CCC(F)(F)F)Cc1ccc(F)cc1C(F)(F)F [Example 300, 1-(4-((4-fluoro-2-(trifluoromethyl)benzyl) (3,3,3-trifluoropropyl)amino)-2′-(1H-tetrazol-5-yl)-[1,1′-biphenyl]-3-yl)-3-(2-fluoro-4-(trifluoromethyl)phenyl)urea], the IC50 was 180 nM. Cc1ccc(NC(=O)Nc2cc(-c3ccccc3-c3nnn[nH]3)ccc2N2CCC(c3ccc(F)cc3)C2)cc1 (stereo not drawn) [Example 386] was tested, and the IC50 was 40 nM. In the case of Cc1ccc(NC(=O)Nc2cc(-c3ccccc3-c3nnn[nH]3)ccc2N(CC(F)F)C2CCCCC2)cc1 [Example 194, 1-(4-(cyclohexyl(2,2-difluoroethyl)amino)-2′-(1H-tetrazol-5-yl)-[1,1′-biphenyl]-3-yl)-3-(p-tolyl)urea], the IC50 is reported as 4.74 nM. Compound CCN(c1ccc(-c2ccccc2C(=O)O)cc1NC(=O)Nc1ccc(C)cc1)C1CCCC1 [Example 76, 4′-(cyclopentyl(ethyl)amino)-3′-(3-p-tolylureido)biphenyl-2-carboxylic acid] has an IC50 of 20 nM. With Cc1ccc(NC(=O)Nc2cc(-c3cc(F)ccc3C(=O)O)ccc2N(CC(C)C)C(C)C)cc1 [Example 149, 5-fluoro-4′-(isobutyl(isopropyl)amino)-3′-(3-p-tolylureido)biphenyl-2-carboxylic acid] the IC50 was 60 nM. For CC(C)CN(CC(C)C)c1ccc(-c2ccccc2-c2nnn[nH]2)cc1NC(=O)Nc1ccc(F)cc1F [Example 137, 1-(2,4-difluorophenyl)-3-(4-(diisobutylamino)-2′-(1H-tetrazol-5-yl)biphenyl-3-yl)urea], the IC50 was 5.24 nM. In the case of CC(C)CN(CC(C)C)c1ccc(-c2ccccc2-c2nnn[nH]2)cc1NC(=O)Nc1ncccn1 [Example 239, 1-(4-(Diisobutylamino)-2′-(1H-tetrazol-5-yl)-[1,1′-biphenyl]-3-yl)-3-(pyrimidin-2-yl)urea], the IC50 is reported as 3860 nM.
